Data from patent US20250092081A1, “USE OF GLYCOSYLTRASNFERASE INHIBITORS FOR TREATING CANCER” (CALIFORNIA INSTITUTE OF TECHNOLOGY, priority 2020, published 2025).
≈ marks a conversion by molar mass, not a printed value.

Tests used:
[1] = tested on: C. difficile spores; experiment: Spore viability testing; type: cell-based; conditions: for Viability of C. difficile spores: x2 MIC, 24 hours, CFU on taurocholate agar; for Inhibition of C. difficile spore germination: x5 MIC
[2] = tested on: C. difficile ATCC43596; experiment: Minimum inhibitory concentration assay; conditions: for C. difficile ATCC43596 MIC: 48 h, 37° C., anaerobic
[3] = tested on: sheep blood; experiment: Hemolysis of sheep blood; type: cell-based; conditions: Ovis aries
[4] = molecular target: MraY (Escherichia coli (strain K12), UniProt P0A6W3); experiment: MraY assay; type: biochemical; conditions: relative to FR-900493 (1)
Sequence of MraY (P0A6W3 whole entry, looked up, species assumed): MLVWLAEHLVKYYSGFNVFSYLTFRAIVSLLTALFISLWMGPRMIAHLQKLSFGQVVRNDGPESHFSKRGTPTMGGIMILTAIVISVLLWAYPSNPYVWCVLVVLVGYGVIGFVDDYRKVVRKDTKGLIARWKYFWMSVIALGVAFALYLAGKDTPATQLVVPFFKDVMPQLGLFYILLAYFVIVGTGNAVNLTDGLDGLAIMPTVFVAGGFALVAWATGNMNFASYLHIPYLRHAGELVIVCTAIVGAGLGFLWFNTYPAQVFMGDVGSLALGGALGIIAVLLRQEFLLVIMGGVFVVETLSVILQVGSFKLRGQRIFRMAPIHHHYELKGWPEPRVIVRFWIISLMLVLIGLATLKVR

[5] = tested on: Vero cells; experiment: Cytotoxicity MTT assay, Vero cells; type: cell-based, monkey
[6] = Water solubility; type: physicochemical; conditions: 11 relative to 10
[7] = tested on: C. difficile; experiment: Antibacterial activity (FIG. 4), C. difficile; type: cell-based
[8] = Cytotoxicity MTT assay, L12210; type: cell-based; conditions: mouse, L12210 cells
Experimental: (§1) Selected molecules were tested for cytotoxicity (IC50) in cancer and healthy cells via a MTT colorimetric assay.
(§2) Each cell was cultured in recommended medium by ATCC, and the IC50 data were obtained with each cell line.

[9] = Cytotoxicity MTT assay, KB; type: cell-based; conditions: human, KB cells
Experimental: as §1, §2

[10] = Cytotoxicity MTT assay, LoVo; type: cell-based; conditions: human, LoVo cells
Experimental: as §1, §2

[11] = Cytotoxicity MTT assay, SK-OV-3; type: cell-based; conditions: human, SK-OV-3 cells
Experimental: as §1, §2

[12] = Cytotoxicity MTT assay, MDA-MB-435S; type: cell-based; conditions: human, MDA-MB-435S cells
Experimental: as §1, §2

[13] = Cytotoxicity MTT assay, AsPc-1; type: cell-based; conditions: human, AsPc-1 cells
Experimental: as §1, §2

[14] = Cytotoxicity MTT assay, Panc-1; type: cell-based; conditions: human, Panc-1 cells
Experimental: as §1, §2

[15] = Cytotoxicity MTT assay, HPAF-II; type: cell-based; conditions: human, HPAF-II cells
Experimental: as §1, §2

[16] = Cytotoxicity MTT assay, HCT 116; type: cell-based; conditions: human, HCT 116 cells
Experimental: as §1, §2

[17] = tested on: Panc-1 cells; experiment: Boyden chamber migration assay, Panc-1; type: cell-based; conditions: FIG. 7
[18] = tested on: AsPc-1 cells; experiment: Scratch (wound healing) assay, AsPc-1; type: cell-based; conditions: FIG. 9
[19] = tested on: AsPc-1 (pancreatic cancer) cells; experiment: Synergistic assay (checkerboard) on AsPc-1 cells; type: cell-based
Experimental: Synergistic Assay. The synergistic or antagonistic activities of 11 with other cancer drugs on AsPc-1 (pancreatic cancer) cells were assessed in vitro via micro dilution broth checkerboard technique previously reported. The FIC index was calculated according to the following equation. ΣFIC=FICA+FICB=CA/MICA+CB/MICB where MICA and MICB are MIC of drugs A and B, CA and CB are the concentrations of drugs A and B used in combination. In these interaction studies, ΣFIC of less than 0.5 represents synergistic activity.
These experiments were performed in the same manner as those of Example 8.

[20] = tested on: MDA-MB-231 cells; experiment: Animal model of triple negative breast cancer (MDA-MB-231 implanted); type: in vivo; conditions: mice, MDA-MB-231, 10 mg/kg/day, FIG. 10
Experimental: An animal model of triple negative breast cancer was generated by implantation of MDA-MB-231 cells into mice. […] A second group of mice were treated with paclitaxel at 15 mg/kg.

[21] = tested on: patient-derived cell line (BCI-12); experiment: Animal model of Her2+ breast cancer (BCI-12 implanted); type: in vivo; conditions: mice
Experimental: An animal model of Her2+ breast cancer was generated by implantation of cells of a patient-derived cell line (BCI-12) into mice. Said mice were treated with compound 11, with the therapeutic monoclonal antibody transtuzumab (TzMAb), or a combination of compound 11 and transtuzumab.

[22] = tested on: MDA-MB-231 cells; experiment: Expression of tumor markers in MDA-MB-231 cells; type: cell-based; conditions: 48 hours of exposure, FIG. 12
Text: It should be appreciated that MDA-MB-231 is a high DPAGT1 expressing, triple negative cell line. […] Erb2 (HER2), Erb3 (HER3), and Erb4 (HER4) are elevated.

[23] = molecular target: WecA (Escherichia coli (strain K12), UniProt P0AC78); experiment: WecA assay (Table 1); conditions: relative to FR-900493 (1)
Sequence of WecA (P0AC78 whole entry, looked up, species assumed): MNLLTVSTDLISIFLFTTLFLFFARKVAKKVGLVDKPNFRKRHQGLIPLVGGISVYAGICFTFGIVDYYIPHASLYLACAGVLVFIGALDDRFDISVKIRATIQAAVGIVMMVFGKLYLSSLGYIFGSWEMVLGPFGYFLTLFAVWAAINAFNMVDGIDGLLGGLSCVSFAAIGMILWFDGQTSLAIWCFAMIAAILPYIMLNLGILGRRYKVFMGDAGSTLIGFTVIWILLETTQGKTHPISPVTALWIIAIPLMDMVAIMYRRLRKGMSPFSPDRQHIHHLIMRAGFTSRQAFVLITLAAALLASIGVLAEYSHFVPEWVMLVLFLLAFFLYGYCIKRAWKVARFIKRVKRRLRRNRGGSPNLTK

CCCCCCCc1ccc(NC(=O)CCCN(C)[C@H](C(N)=O)[C@H](OC2O[C@H](CN)[C@@H](O)[C@H]2O)[C@H]2O[C@@H](n3ccc(=O)[nH]c3=O)C(O)[C@H]2O)cc1 (stereo partly drawn) [Compound 9]
Viability of C. difficile spores [1]: caused loss of viability
anti-C. difficile growth inhibitory activity (in words) [2]: weak

CCCCCCCc1ccc(NC(=O)CCCN[C@H](C(N)=O)[C@H](OC2O[C@H](CN)[C@@H](O)[C@H]2O)[C@H]2O[C@@H](n3ccc(=O)[nH]c3=O)C(O)[C@H]2O)cc1 (stereo partly drawn) [Compound 10]
Viability of C. difficile spores [1]: caused loss of viability
IC50 [3]: 70000 nM

NC[C@H]1O[C@@H](O[C@H]([C@H]2O[C@@H](n3ccc(=O)[nH]c3=O)[C@H](O)[C@@H]2O)[C@H](NCCCC(=O)NCc2ccc(N3CCC(Oc4ccc(C(F)(F)F)cc4)CC3)cc2)C(N)=O)[C@H](O)[C@@H]1O [Compound 11]
MraY inhibitory activity, more significant than 1 [4]: > 300 times
Viability of C. difficile spores [1]: caused loss of viability
cytotoxic effects on healthy, non-cancerous Vero cells [5]: little cytotoxic effects
IC50 [3]: 206000 nM
water solubility greater than 10 [6]: 200 times
antibacterial activity against C. difficile [7]: displayed antibacterial activity
IC50 [8]: > 100000 nM
IC50 [9]: 7090 nM
IC50 [10]: 220 nM
IC50 [11]: 2850 nM
IC50 [12]: 7090 nM
IC50 [13]: 950 nM
IC50 [14]: < 98 nM
IC50 [15]: < 98 nM
IC50 [16]: 3540 nM
Panc-1 migratory cells [17]: fewer Panc-1 migratory cells than Gemcitabine, Taxol, and Tunicamycin
AsPc-1 cell migration, scratch assay [18]: less AsPc-1 cell migration than Gemcitabine
effect of combinations of 11 and Taxol ([19]; AsPc-1, all five combinations, FIC < 0.5): synergistic effect
effect of combination of 11 and Gemcitabine ([19]; AsPc-1, both combinations): synergistic effect
IC50 A / IC50 B (drug alone) ([19]; AsPc-1 cells, Table 5): 982 nM
IC50 A / IC50 B (drug alone) ([19]; AsPc-1 cells, Table 6): 980 nM
AsPc-1 cells dead/alive ([19]; Compound 11 0.0488281 μM + Gemcitabine 0.024414 μM): alive
AsPc-1 cells dead/alive ([19]; Compound 11 0.0488281 μM + Gemcitabine 0.048828 μM): alive
AsPc-1 cells dead/alive ([19]; Compound 11 0.0488281 μM + Gemcitabine 0.097656 μM): dead
AsPc-1 cells dead/alive ([19]; Compound 11 0.0488281 μM + Gemcitabine 0.195313 μM): dead
AsPc-1 cells dead/alive ([19]; Compound 11 0.0488281 μM + Gemcitabine 0.390625 μM): dead
AsPc-1 cells dead/alive ([19]; Compound 11 0.0976563 μM + Gemcitabine 0.024414 μM): alive
AsPc-1 cells dead/alive ([19]; Compound 11 0.0976563 μM + Gemcitabine 0.048828 μM): alive
AsPc-1 cells dead/alive ([19]; Compound 11 0.0976563 μM + Gemcitabine 0.097656 μM): dead
AsPc-1 cells dead/alive ([19]; Compound 11 0.0976563 μM + Gemcitabine 0.195313 μM): dead
AsPc-1 cells dead/alive ([19]; Compound 11 0.0976563 μM + Gemcitabine 0.390625 μM): dead
AsPc-1 cells dead/alive ([19]; Compound 11 0.1953125 μM + Gemcitabine 0.024414 μM): alive
AsPc-1 cells dead/alive ([19]; Compound 11 0.1953125 μM + Gemcitabine 0.048828 μM): alive
AsPc-1 cells dead/alive ([19]; Compound 11 0.1953125 μM + Gemcitabine 0.097656 μM): dead
AsPc-1 cells dead/alive ([19]; Compound 11 0.1953125 μM + Gemcitabine 0.195313 μM): dead
AsPc-1 cells dead/alive ([19]; Compound 11 0.1953125 μM + Gemcitabine 0.390625 μM): dead
AsPc-1 cells dead/alive ([19]; Compound 11 0.390625 μM + Gemcitabine 0.024414 μM): alive
AsPc-1 cells dead/alive ([19]; Compound 11 0.390625 μM + Gemcitabine 0.048828 μM): alive
AsPc-1 cells dead/alive ([19]; Compound 11 0.390625 μM + Gemcitabine 0.097656 μM): dead
AsPc-1 cells dead/alive ([19]; Compound 11 0.390625 μM + Gemcitabine 0.195313 μM): dead
AsPc-1 cells dead/alive ([19]; Compound 11 0.390625 μM + Gemcitabine 0.390625 μM): dead
AsPc-1 cells dead/alive ([19]; Compound 11 0.78125 μM + Gemcitabine 0.024414 μM): alive
AsPc-1 cells dead/alive ([19]; Compound 11 0.78125 μM + Gemcitabine 0.048828 μM): alive
AsPc-1 cells dead/alive ([19]; Compound 11 0.78125 μM + Gemcitabine 0.097656 μM): dead
AsPc-1 cells dead/alive ([19]; Compound 11 0.78125 μM + Gemcitabine 0.195313 μM): dead
AsPc-1 cells dead/alive ([19]; Compound 11 0.78125 μM + Gemcitabine 0.390625 μM): dead
effect compared with paclitaxel (15 mg/kg) [20]: at least equivalent to palctitaxel
effect compared with transtuzumab ([21]; BCI-12, FIG. 11): at least equivalent to transtuzumab
effect of combination of compound 11 and transtuzumab ([21]; BCI-12, about days 20 to 30 of treatment): Improved effects
expression of DPAGT1 (RPKM Expression Value) [22]: sharply reduced
expression of EGFR (HER1) [22]: sharply reduced
expression of Erb2 (HER2) [22]: elevated
expression of Erb3 (HER3) [22]: elevated
expression of Erb4 (HER4) [22]: elevated
WecA inhibitory activity, more significant than 1 [23]: about 15 fold

CN(CCCC(=O)NCc1ccc(N2CCC(Oc3ccc(C(F)(F)F)cc3)CC2)cc1)[C@H](C(N)=O)[C@H](O[C@@H]1O[C@H](CN)[C@@H](O)[C@H]1O)[C@H]1O[C@@H](n2ccc(=O)[nH]c2=O)[C@H](O)C1O (stereo partly drawn) [Compound 12]
anti-C. difficile growth inhibitory activity (in words) [2]: weak

CN(CCCN)[C@H](C(=O)O)[C@H](O[C@@H]1O[C@H](CN)[C@@H](O)[C@H]1O)[C@H]1O[C@@H](n2ccc(=O)[nH]c2=O)[C@H](O)[C@@H]1O [FR-900493 (1), FR-900493]
C. difficile ATCC43596 MIC [2]: >50 µg/mL

Nc1ccn([C@@H]2O[C@H](CO)[C@@H](O)C2(F)F)c(=O)n1 [Gemcitabine, reference compound]
IC50 A / IC50 B (drug alone) ([19]; AsPc-1 cells, Table 6): 390 nM
CA and CB (concentrations of drugs A and B used in combination) ([19]; AsPc-1 cells, combination of 11 (A) and Gemcitabine (B), per entry): 0.37 µM

CC(=O)O[C@H]1C(=O)[C@@]2(C)[C@H]([C@H](OC(=O)c3ccccc3)[C@]3(O)C[C@H](OC(=O)[C@H](O)[C@@H](NC(=O)c4ccccc4)c4ccccc4)C(C)=C1C3(C)C)[C@]1(OC(C)=O)CO[C@@H]1C[C@@H]2O [Taxol, Paclitaxel, reference compound]
IC50 [8]: 550 nM
IC50 [9]: 790 nM
IC50 [10]: 57 nM
IC50 [11]: 1080 nM
IC50 [12]: 110 nM
IC50 [13]: 190 nM
IC50 [14]: 20 nM
IC50 [15]: 20 nM
IC50 A / IC50 B (drug alone) ([19]; AsPc-1 cells, Table 5): 550 nM
lowest Taxol concentration to kill AsPc-1 cells when combined with 11 ([19]; combined with 11): 7 nM

CC(=O)NC[C@H]1CN(c2ccc(N3CCOCC3)c(F)c2)C(=O)O1 [linezolid, reference compound]
Inhibition of C. difficile spore germination [1]: did not inhibit the spore germination

Cc1ncc([N+](=O)[O-])n1CCO [metronidazole, reference compound]
Inhibition of C. difficile spore germination [1]: did not inhibit the spore germination

CN[C@H](CC(C)C)C(=O)N[C@H]1C(=O)N[C@@H](CC(N)=O)C(=O)N[C@H]2C(=O)N[C@H]3C(=O)N[C@H](C(=O)N[C@H](C(=O)O)c4cc(O)cc(O)c4-c4cc3ccc4O)[C@H](O)c3ccc(c(Cl)c3)Oc3cc2cc(c3O[C@@H]2O[C@H](CO)[C@@H](O)[C@H](O)[C@H]2O[C@H]2C[C@](C)(N)[C@H](O)[C@H](C)O2)Oc2ccc(cc2Cl)[C@H]1O [vancomycin, reference compound]
Inhibition of C. difficile spore germination [1]: did not inhibit the spore germination
MIC against C. difficile (reference antibiotic) [2]: 2.5 µg/mL (≈ 1.73 µM)

Tunicamycin
C. difficile ATCC43596 MIC [2]: >50 µg/mL
